Our source for the IC50 values is patent US9266883B2, “Ring-fused bicyclic pyridyl derivatives as FGFR4 inhibitors” (Novartis AG, priority 2013, dated 2016).

FGFR4 (GST-FGFR4(388-802)), sequence (P22455 388-802): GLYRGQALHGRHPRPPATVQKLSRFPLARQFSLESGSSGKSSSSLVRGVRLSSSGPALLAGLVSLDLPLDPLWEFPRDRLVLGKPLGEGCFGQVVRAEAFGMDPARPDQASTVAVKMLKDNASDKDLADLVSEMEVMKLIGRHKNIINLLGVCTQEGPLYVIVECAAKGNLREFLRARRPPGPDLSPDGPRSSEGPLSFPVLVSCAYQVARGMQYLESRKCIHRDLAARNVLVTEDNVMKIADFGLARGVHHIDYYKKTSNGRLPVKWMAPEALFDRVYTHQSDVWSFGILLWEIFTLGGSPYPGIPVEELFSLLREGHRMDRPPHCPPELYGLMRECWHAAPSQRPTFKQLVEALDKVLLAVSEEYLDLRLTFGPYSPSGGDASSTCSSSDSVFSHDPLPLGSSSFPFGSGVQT

One assay concerns the target FGFR4 (GST-FGFR4(388-802)) (Homo sapiens (Human), UniProt P22455). Description: In-vitro biochemical kinase assay for FGFR4 (Caliper microfluidic mobility shift). The conditions noted are these: biochemical FGFR4 assay; read-out: Biochemical IC50.
On to `COCCOc1nc(NC(=O)N2CCCc3cc(C(F)F)c(C=O)nc32)ncc1C#N` [N-(5-cyano-4-(2-methoxyethoxyl)pyrimidin-2-yl)-6-(difluoromethyl)-7-formyl-3,4-dihydro-1,8-naphthyridine-1(2H)-carboxamide], for which the IC50 (commonly the concentration that gives 50% inhibition) amounted to 28 nM.

For the molecule `N#Cc1cnc(NC(=O)N2CCCc3cc(CO)c(C=O)nc32)cc1OCC1CNCCO1` (stereo not shown) [N-(5-cyano-4-(morpholin-2-ylmethoxy)pyridin-2-yl)-7-formyl-6-(hydroxymethyl)-3,4-dihydro-1,8-naphthyridine-1(2H)-carboxamide], the IC50 is 350 nM.

As for `COCC(C)(C)Nc1cc(NC(=O)N2CCCc3cc(C(F)F)c(C=O)nc32)ncc1C#N` [N-(5-cyano-4-((1-methoxy-2-methylpropan-2-yl)amino)pyridin-2-yl)-6-(difluoromethyl)-7-formyl-3,4-dihydro-1,8-naphthyridine-1(2H)-carboxamide], the IC50 was 4.3 nM.

For the molecule `CCc1cc(NC(=O)N2CCCc3cc(CO)c(C=O)nc32)ncc1C#N` [N-(5-cyano-4-ethylpyridin-2-yl)-7-formyl-6-(hydroxymethyl)-3,4-dihydro-1,8-naphthyridine-1(2H)-carboxamide], the IC50 turned out to be 960 nM.

Consider `CC(=O)N(C)Cc1cc2c(nc1C=O)N(C(=O)Nc1cc(NCC(C)(C)O)c(C#N)cn1)CCC2` [N-(5-cyano-4-((2-hydroxy-2-methylpropyl)amino)pyridin-2-yl)-7-formyl-6-((N-methylacetamido)methyl)-3,4-dihydro-1,8-naphthyridine-1(2H)-carboxamide], for which the IC50 was 1.6 nM.

For the molecule `CC(=O)N(C)Cc1cc2c(nc1C=O)N(C(=O)Nc1cc(OCC(F)(F)F)c(C#N)cn1)CCC2` [N-(5-cyano-4-(2,2,2-trifluoroethoxyl)pyridin-2-yl)-7-formyl-6-((N-methylacetamido)methyl)-3,4-dihydro-1,8-naphthyridine-1(2H)-carboxamide], the IC50 turned out to be 0.5 nM.

For `CC(=O)N(C)Cc1cc2c(nc1C=O)N(C(=O)Nc1cc(O[C@H]3CCOC3)c(C#N)cn1)CCC2` [(S)-N-(5-cyano-4-((tetrahydrofuran-3-yl)oxy)pyridin-2-yl)-7-formyl-6-((N-methylacetamido)methyl)-3,4-dihydro-1,8-naphthyridine-1(2H)-carboxamide], the IC50 amounted to 0.4 nM.

The assay is the same for the next values; noted with them: read-out: Biochemical FGFR4 IC50.
`N#Cc1ccc(NC(=O)N2CCCc3cc(C(F)F)c(C=O)nc32)nc1` [Example 37, N-(5-cyanopyridin-2-yl)-6-(difluoromethyl)-7-formyl-3,4-dihydro-1,8-naphthyridine-1(2H)-carboxamide]: the half-inhibitory concentration (IC50) amounted to 19 nM.

In the case of `O=Cc1nc2c(cc1CO)CCCN2C(=O)Nc1ccc(C(F)(F)F)cn1` [Example 18, 7-formyl-6-(hydroxymethyl)-N-(5-(trifluoromethyl)pyridin-2-yl)-3,4-dihydro-1,8-naphthyridine-1(2H)-carboxamide], the IC50 was 98 nM.

In the case of `CC(C)Oc1cc(NC(=O)N2CCCc3cc(C4CCOC4)c(C=O)nc32)ncc1C#N` (racemic) [Example 264, N-(5-cyano-4-isopropoxypyridin-2-yl)-7-formyl-6-(tetrahydrofuran-3-yl)-3,4-dihydro-1,8-naphthyridine-1(2H)-carboxamide], the IC50 worked out at 1 nM.

For `Cc1cc2c(nc1C=O)N(C(=O)Nc1ccc(C(F)(F)F)cn1)CCC2` [Example 20, 7-formyl-6-methyl-N-(5-(trifluoromethyl)pyridin-2-yl)-3,4-dihydro-1,8-naphthyridine-1(2H)-carboxamide], the IC50 was 68.5 nM.

Turning to `N#Cc1cnc(NC(=O)N2CCCc3ccc(C=O)nc32)cc1OC1CCOC1` (racemic) [Example 40, N-(5-cyano-4-((tetrahydrofuran-3-yl)oxy)pyridin-2-yl)-7-formyl-3,4-dihydro-1,8-naphthyridine-1(2H)-carboxamide], the IC50 came out at 0.7 nM.

With `CN1CCC2(CCN(c3cc(NC(=O)N4CCCc5ccc(C=O)nc54)ncc3C#N)CC2)C1` [Example 28, N-(5-cyano-4-(2-methyl-2,8-diazaspiro[4.5]decan-8-yl)pyridin-2-yl)-7-formyl-3,4-dihydro-1,8-naphthyridine-1(2H)-carboxamide], the IC50 came to 3.4 nM.
